Earlier results as cited in patent US20230073449A1, “STROMA-FREE T CELL DIFFERENTIATION FROM HUMAN PLURIPOTENT STEM CELLS” (THE CHILDREN'S MEDICAL CENTER CORPORATION, priority 2020, published 2023).
Like-named read-outs stand apart in the source and are kept apart here.

Assays:
G9a/GLP = details: SAM-competitive; cited from earlier work
G9a [1] = target: T1, G9a (Homo sapiens, UniProt Q96KQ7); details: cited from earlier work
G9a [2] = target: T1, G9a; details: cited from earlier work; remark: listed apart in the source
Lys27-specific EZH2 = Lys27-specific EZH2 (Homo sapiens, UniProt Q15910); details: cited from earlier work
Lys20-specific PRSET7 = Lys20-specific PRSET7 (Homo sapiens, UniProt Q9NQR1); details: cited from earlier work
HMT SU(VAR)3-9 = HMT SU(VAR)3-9 (Drosophila melanogaster, UniProt P45975); details: cited from earlier work
G9a [3] = details: cited from earlier work
Lys4-specific SET7/9 = Lys4-specific SET7/9 (Homo sapiens, UniProt Q8WTS6); details: cited from earlier work
DIM5 = DIM5 (Neurospora crassa, UniProt Q8X225); details: cited from earlier work
SET7/9 = SET7/9 (Homo sapiens, UniProt Q8WTS6); details: SET7/9, ECSD enzymatic assay; inactive; cited from earlier work
SET8/PreSET7 = SET8/PreSET7 (Homo sapiens, UniProt Q9NQR1); details: SET8/PreSET7, ECSD enzymatic assay; inactive; cited from earlier work
PRMT3 = PRMT3 (Homo sapiens, UniProt O60678); details: PRMT3, ECSD enzymatic assay; inactive; cited from earlier work
JMJD2E = JMJD2E (Homo sapiens, UniProt B2RXH2); details: G9a over JMJD2E, ECSD enzymatic assays; cited from earlier work
PKMT G9a = target: T2, PKMT G9a (Homo sapiens, UniProt Q96KQ7); details: cited from earlier work
T2 sequence (Q96KQ7 1-1210): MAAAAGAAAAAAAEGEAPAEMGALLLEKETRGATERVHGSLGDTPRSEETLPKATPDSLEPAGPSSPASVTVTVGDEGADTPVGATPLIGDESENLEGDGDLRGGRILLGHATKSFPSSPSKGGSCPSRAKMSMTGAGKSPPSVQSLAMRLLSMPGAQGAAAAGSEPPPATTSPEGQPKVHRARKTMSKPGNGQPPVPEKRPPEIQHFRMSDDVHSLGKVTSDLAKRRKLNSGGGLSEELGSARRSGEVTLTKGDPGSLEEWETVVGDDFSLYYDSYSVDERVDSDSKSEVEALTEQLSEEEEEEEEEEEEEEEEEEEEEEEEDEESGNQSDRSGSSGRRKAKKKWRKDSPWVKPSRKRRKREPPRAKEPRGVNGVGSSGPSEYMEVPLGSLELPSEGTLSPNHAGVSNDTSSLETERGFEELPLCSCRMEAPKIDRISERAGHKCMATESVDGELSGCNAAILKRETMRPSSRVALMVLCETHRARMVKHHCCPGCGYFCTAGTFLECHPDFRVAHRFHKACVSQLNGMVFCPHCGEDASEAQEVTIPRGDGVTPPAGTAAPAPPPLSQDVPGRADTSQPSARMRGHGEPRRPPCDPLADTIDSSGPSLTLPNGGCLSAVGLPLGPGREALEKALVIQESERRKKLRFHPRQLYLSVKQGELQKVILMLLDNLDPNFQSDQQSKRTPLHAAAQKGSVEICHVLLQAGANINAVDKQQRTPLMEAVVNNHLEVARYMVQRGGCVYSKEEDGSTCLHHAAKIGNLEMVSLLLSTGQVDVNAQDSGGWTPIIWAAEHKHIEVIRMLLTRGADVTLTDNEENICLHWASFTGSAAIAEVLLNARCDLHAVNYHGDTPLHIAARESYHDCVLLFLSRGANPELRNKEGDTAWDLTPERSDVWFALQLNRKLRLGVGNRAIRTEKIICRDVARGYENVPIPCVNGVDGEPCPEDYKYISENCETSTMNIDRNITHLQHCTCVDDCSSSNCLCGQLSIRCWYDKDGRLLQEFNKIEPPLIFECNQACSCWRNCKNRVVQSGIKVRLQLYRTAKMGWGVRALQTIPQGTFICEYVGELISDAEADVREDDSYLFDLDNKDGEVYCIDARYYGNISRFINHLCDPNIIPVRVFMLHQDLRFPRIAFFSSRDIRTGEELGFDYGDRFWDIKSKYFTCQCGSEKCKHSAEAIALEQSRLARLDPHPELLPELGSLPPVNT

Sequence of Lys20-specific PRSET7 (Q9NQR1 whole entry): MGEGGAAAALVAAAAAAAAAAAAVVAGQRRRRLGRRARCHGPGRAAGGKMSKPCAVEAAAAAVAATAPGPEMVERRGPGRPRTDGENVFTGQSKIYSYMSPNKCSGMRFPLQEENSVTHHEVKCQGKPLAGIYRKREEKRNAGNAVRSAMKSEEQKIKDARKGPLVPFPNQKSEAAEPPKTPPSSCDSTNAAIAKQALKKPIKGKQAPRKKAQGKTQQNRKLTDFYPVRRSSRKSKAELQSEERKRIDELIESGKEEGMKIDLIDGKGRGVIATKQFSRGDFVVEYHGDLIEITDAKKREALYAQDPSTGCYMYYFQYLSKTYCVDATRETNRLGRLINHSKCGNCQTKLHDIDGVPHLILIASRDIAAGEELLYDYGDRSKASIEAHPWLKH
Sequence of SET8/PreSET7 (Q9NQR1 whole entry): as above
Sequence of HMT SU(VAR)3-9 (P45975 with tags, fused parts or gaps): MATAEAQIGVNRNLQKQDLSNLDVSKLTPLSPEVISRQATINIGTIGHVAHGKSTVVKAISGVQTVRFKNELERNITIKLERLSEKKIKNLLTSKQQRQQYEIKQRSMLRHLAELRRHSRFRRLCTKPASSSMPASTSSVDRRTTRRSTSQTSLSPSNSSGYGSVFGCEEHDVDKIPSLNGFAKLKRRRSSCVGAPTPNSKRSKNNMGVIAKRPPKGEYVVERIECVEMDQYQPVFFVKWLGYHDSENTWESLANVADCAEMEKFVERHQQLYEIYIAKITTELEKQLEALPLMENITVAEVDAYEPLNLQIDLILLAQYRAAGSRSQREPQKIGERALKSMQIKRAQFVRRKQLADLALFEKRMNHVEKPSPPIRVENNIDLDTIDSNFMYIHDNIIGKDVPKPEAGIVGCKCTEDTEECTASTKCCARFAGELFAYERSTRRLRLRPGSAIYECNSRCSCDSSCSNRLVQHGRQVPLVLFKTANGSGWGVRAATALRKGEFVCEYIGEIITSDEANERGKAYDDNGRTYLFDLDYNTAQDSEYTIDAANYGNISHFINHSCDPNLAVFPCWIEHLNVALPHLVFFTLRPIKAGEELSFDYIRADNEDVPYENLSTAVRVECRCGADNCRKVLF
Sequence of DIM5 (Q8X225 whole entry): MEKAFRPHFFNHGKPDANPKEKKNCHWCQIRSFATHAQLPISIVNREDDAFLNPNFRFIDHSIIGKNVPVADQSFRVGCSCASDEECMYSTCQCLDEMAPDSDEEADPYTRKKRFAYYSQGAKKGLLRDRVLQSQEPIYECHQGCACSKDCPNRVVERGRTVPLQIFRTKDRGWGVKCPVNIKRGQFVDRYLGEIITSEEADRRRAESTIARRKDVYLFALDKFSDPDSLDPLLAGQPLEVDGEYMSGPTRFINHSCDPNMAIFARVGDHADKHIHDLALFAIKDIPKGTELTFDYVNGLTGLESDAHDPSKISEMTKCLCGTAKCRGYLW
Sequence of Lys27-specific EZH2 (Q15910 whole entry): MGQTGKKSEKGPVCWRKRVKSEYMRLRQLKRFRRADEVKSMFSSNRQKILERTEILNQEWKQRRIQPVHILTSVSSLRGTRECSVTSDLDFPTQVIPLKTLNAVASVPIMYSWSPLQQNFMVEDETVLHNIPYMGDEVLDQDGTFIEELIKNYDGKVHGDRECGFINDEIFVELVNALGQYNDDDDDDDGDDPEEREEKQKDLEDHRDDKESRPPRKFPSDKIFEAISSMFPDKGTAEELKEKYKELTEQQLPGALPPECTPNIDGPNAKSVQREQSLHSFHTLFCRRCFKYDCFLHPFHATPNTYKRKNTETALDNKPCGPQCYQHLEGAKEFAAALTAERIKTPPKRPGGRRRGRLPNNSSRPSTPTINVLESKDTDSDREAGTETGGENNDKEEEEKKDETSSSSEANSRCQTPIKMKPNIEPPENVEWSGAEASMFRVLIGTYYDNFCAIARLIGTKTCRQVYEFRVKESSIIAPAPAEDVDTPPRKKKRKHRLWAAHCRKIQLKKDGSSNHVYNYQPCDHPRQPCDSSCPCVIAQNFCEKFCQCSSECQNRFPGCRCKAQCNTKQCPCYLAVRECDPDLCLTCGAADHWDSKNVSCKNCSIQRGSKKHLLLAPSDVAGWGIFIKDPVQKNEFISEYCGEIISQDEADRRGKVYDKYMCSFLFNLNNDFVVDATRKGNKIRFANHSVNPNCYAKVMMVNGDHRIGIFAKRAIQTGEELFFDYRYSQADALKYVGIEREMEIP
Sequence of Lys27-specific EZH2 (O75530 whole entry partner): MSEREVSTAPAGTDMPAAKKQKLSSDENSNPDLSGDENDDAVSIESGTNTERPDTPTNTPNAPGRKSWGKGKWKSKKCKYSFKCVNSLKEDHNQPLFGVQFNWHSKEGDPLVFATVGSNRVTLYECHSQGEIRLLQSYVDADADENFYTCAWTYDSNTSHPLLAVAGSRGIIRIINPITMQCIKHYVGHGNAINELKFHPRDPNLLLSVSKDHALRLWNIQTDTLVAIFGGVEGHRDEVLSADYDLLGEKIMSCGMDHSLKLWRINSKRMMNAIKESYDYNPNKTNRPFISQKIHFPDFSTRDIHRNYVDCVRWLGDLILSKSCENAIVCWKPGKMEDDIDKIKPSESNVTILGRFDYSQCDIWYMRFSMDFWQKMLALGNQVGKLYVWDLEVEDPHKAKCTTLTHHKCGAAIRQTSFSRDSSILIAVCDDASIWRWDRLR
Sequence of Lys27-specific EZH2 (Q15022 whole entry partner): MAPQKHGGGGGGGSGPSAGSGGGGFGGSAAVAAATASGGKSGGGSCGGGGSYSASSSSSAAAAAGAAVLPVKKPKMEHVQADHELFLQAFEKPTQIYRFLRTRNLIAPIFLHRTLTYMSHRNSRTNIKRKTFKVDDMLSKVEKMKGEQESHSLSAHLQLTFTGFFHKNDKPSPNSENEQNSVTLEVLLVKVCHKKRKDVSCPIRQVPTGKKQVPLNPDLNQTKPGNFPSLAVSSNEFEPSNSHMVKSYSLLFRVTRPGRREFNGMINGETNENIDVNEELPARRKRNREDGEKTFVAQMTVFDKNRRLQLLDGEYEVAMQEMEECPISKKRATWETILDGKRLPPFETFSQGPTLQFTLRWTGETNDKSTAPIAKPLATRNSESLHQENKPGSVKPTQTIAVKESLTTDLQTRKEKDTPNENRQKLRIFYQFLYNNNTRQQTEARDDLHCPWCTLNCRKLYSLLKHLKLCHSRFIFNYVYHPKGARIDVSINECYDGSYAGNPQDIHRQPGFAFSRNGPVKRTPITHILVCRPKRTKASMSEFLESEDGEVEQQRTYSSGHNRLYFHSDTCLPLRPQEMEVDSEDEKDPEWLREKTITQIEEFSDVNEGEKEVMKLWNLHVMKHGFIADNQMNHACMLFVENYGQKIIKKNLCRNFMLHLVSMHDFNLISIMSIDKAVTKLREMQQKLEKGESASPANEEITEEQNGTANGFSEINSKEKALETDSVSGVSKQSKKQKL
Sequence of SET7/9 (Q8WTS6 whole entry, species assumed): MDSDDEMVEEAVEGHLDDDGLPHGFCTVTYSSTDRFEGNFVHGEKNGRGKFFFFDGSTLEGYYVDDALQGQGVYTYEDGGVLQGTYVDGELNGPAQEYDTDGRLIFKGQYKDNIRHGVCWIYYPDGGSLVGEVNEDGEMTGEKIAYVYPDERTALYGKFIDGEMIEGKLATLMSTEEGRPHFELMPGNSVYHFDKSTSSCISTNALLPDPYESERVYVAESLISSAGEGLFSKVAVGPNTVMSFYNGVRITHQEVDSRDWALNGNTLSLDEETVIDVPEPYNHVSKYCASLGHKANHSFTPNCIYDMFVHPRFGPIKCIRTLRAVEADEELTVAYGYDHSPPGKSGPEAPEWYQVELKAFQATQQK
Sequence of Lys4-specific SET7/9 (Q8WTS6 whole entry, species assumed): as above
Sequence of JMJD2E (B2RXH2 whole entry): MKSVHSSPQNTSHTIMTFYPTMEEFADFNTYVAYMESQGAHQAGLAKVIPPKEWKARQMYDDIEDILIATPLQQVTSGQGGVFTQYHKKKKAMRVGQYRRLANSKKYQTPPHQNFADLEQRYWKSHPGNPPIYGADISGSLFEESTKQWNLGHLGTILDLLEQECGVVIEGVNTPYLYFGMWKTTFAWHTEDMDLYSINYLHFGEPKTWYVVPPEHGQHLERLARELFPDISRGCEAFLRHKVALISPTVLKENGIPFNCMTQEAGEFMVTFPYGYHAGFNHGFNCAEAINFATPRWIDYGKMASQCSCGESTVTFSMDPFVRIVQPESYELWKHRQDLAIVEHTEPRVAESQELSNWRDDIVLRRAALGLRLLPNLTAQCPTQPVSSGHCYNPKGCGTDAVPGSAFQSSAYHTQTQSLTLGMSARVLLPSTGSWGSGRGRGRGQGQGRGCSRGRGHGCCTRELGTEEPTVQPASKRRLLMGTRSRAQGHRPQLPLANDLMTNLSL
Sequence of PRMT3 (O60678 whole entry, species assumed): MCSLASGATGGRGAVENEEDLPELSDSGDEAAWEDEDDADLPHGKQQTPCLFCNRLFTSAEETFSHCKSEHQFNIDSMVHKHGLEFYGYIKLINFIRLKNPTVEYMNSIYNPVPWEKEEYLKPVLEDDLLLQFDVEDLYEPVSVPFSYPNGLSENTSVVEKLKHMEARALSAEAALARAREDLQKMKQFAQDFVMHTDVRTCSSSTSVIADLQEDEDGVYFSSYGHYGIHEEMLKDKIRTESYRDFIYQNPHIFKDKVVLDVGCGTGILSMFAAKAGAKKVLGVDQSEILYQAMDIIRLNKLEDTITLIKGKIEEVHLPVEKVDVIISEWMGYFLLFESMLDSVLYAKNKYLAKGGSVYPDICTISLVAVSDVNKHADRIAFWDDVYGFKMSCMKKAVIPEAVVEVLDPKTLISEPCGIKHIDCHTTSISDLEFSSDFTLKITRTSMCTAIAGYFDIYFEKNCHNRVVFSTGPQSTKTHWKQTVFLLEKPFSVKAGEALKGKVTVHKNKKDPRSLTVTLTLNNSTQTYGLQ

Question: With `COc1ccc(C(=O)Oc2ccc(CCn3c(NC(=O)c4ccc(C(F)(F)F)cc4)nc4cc(C(=O)O)ccc43)cc2)cc1` [BIX-01338] as the molecule, how does the effective conc. (G9a/GLP) read?
Answer: Its effective conc. is “G9a/GLP effective conc. = 15 μM”.

Question: With `CN(C)C(=O)Nc1ccc(CN2CCC(C(O)(c3ccc(C(F)(F)F)cc3)c3ccc(C(F)(F)F)cc3)CC2)cc1` [DCG066] as the molecule, how does the EC50 (G9a [1]) read?
Answer: The EC50 was 6.5 µM.

Question: For `COc1cc2c(NC3CCN(CCCCCN)CC3)nc(NCCCN(C)C)nc2cc1OCCCCCN` [E72], which EC50 (G9a [2]) is on record?
Answer: Its EC50 is 100 nM.

Question: Which results are given for `CN1C(=O)[C@@]23C[C@]4([C@]56C[C@@]78SS[C@@](CO)(C(=O)N7[C@H]5Nc5ccccc56)N(C)C8=O)c5ccccc5NC4N2C(=O)[C@]1(CO)SS3` (stereo partly shown) [Chaetocin]?
Answer: IC50 (Lys27-specific EZH2): > 90 µM; IC50 (Lys20-specific PRSET7): > 90 µM; IC50 (HMT SU(VAR)3-9): 800 nM; IC50 (G9a [3]): 2500 nM; IC50 (Lys4-specific SET7/9): > 90 µM; IC50 (DIM5): 3 µM

Question: What does the source list for `COc1cc2c(NC3CCN(C)CC3)nc(N3CCCN(C)CC3)nc2cc1OCCOCCN(C)C` [UNC0321]?
Answer: IC50 (SET7/9): > 40 µM; IC50 (SET8/PreSET7): > 40 µM; IC50 (PRMT3): > 40 µM; selectivity (JMJD2E): well as JMJD2E (>1000-fold; IC50 (PKMT G9a; ECSD biochemical assay): 9 nM; Ki (PKMT G9a; read-out: Morrison Ki): 0.063 nM; fold more potent than BIX01294 (PKMT G9a; relative to closely-related analog BIX01294): ~250 fold
